As usually defined, the melting point is the temperature of the solid-liquid transition.

As to `Cc1ccc2c(c1C)CCC1C2CCC2CC(O)CCC21C` (stereo not given), the melting point is 188 °C. In turn, `CCOc1cc(C(=S)N2CCCCC2)ccc1O` displayed a melting point of 123 °C. `CC12CCC(C1(C)C)C(C/C=C\c1ccccc1)(C1(C/C=C/c3ccccc3)C(=O)C3(C)CCC1C3(C)C)C2=O` (stereo not given) had a melting point of 188 °C. The value for `CCCC(O)C(O)CO` (stereo not given) was 66 °C. In turn, `Cc1cc(Br)c(N)c(Br)c1` displayed a melting point of 74 °C. The result for `Nc1ccnc2ccccc12` reads 155 °C; that for `COc1ccc(-c2nn3c(COc4ccccc4)nnc3s2)cc1OC`, 106 °C; that for `CCCN=C=O`, -30 °C. The result for `Brc1cccc2cccnc12` reads 58 to 59 °C. As to `OCCNc1ccccc1`, the melting point is 11 °C.

Turning to `Fc1cc2c(cc1F)Oc1cc(Br)c(Br)cc1O2`, the melting point came to 210 °C. As to `NNC(=O)CNc1nc(N)n[nH]1`, the melting point turned out to be 225 °C.

On to `Fc1cccc(C(F)(F)F)c1`, for which the melting point is -81.5 °C. Compound `NC(CSc1ccccn1)=NO` came in with a melting point of 100 °C. On to `Cc1cc(Cl)cc([N+](=O)[O-])c1`, for which the melting point worked out at 61 °C. Consider `CCCCCCCCOC(=O)CCCCC`, for which the melting point was -28 °C.

Turning to `CC(=O)c1cc(Cl)c(C)cc1O`, the melting point lay in the range of 70 to 73 °C. In turn, `CNc1cccc2ccccc12` displayed a melting point of 174 °C. Regarding `CC1=CC(=O)CC(C)(C)C1=O`, the melting point was in the range of 26 to 28 °C. `COC(=O)c1ccc(C#Cc2ccccc2)o1` yielded a melting point of 79 to 82 °C. The result for `c1ccc2cc3c4ccccc4c4ccccc4c3cc2c1` reads 206 °C; that for `Nc1ncnc(Nc2ccc(Cl)cc2)n1`, 233 °C; that for `COc1ccc(Nc2[nH]c(=S)nnc2-c2ccccc2)cc1`, 233 °C. The value for `O=C1OC2(Cc3ccccc31)C(=O)c1ccccc1C2=O` was 205 °C; that for `OCCc1c(Cl)cccc1Cl` was 59 to 65 °C; that for `CC(Oc1ccc(Oc2ncc(C(F)(F)F)cc2Cl)cc1)C(=O)O` (stereo not given) was 108 °C.

In the case of `O=P(O)(O)CCN(CP(c1ccccc1)c1ccccc1)CP(c1ccccc1)c1ccccc1`, the melting point is 146 to 148 °C. In turn, `CC(C)N(C(=O)SCC(Cl)=C(Cl)Cl)C(C)C` gave a melting point of 29 °C.

In turn, `CC(=O)N(C)c1cccc(N(C)C(C)=O)c1` displayed a melting point of 152 °C.

In turn, `c1ccc2c(c1)-c1ccccc1-2` showed a melting point of 114 to 115 °C. `Brc1cccs1` showed a melting point of -10 °C. The result for `Nc1ccccc1S` reads 26 °C; that for `Cc1cc(Br)ccc1N=C=S`, 45 to 46 °C; that for `Oc1ccc(/C=C/c2ccccc2)cc1`, 185 to 189 °C. The result for `Cc1ccc2ncccc2c1[N+](=O)[O-]` reads 118 to 120 °C; that for `CCOC(=O)c1cc(C)n(-c2cc(C)n(C)n2)n1`, 72 °C.

Consider `CC(=O)Oc1ccccc1C(=O)OCC(=O)N(C(C)C)C(C)C`, for which the melting point came to 108 °C. In turn, `COc1ccccc1NC(=O)CC(C)=O` gave a melting point of 86 °C.

Consider `CCOC(=O)Cc1ccc(N)cc1`, for which the melting point lay within 48 to 50 °C.

In turn, `O=Cc1ccc2occc2c1` had a melting point of 37 to 38 °C. The compound `COc1ccc(C=Cc2cc(OC)cc(=O)o2)cc1` had a melting point of 156 °C. The compound `O=C(OCc1ccccc1)N1CCC(CBr)CC1` had a melting point of 68 °C. Compound `CCOC(=O)c1cc2cccnc2s1` came in with a melting point of 59 to 60 °C.

In turn, `O=C(c1ccc(Cl)cc1)c1nn(-c2ccccc2)/c(=N\N=Cc2ccc(F)cc2)s1` came in with a melting point of 150 °C.

Compound `Cn1nc(C2CC2)cc1N` came in with a melting point of 120 to 123 °C. Consider `COc1cc(CC#N)ccc1O`, for which the melting point came out at 56.5 °C. The result for `CN1Cc2c(ccc3c2OCO3)C2C(O)Cc3cc4c(cc3C21)OCO4` (stereo not given) reads 136 °C; that for `C1C2CC3CC1CC(C2)C3`, 267 °C; that for `O=c1[nH]nc(-c2ccccc2)c(=S)n1-c1ccc(F)c(Cl)c1`, 138 °C. Regarding `COc1ccc(C(O)c2ccc(OC)cc2)cc1`, the melting point worked out at 70 °C. The compound `CCCCC(NC(=O)OCC1c2ccccc2-c2ccccc21)C(=O)O` (stereo not given) registered a melting point of 141 °C. On to `CCNC(=O)NC(=O)C(C#N)=NOC`, for which the melting point was 161 °C. The result for `Cc1ccccc1Oc1ccccc1` reads 21.7 °C; that for `CCC(=O)OC1(C(=O)CCl)C(C)CC2C3CCC4=CC(=O)C=CC4(C)C3(F)C(O)CC21C` (stereo not given), 196 °C. As to `O=S1(=O)OC(c2ccc(O)cc2)(c2ccc(O)cc2)c2ccccc21`, the melting point amounted to 300 °C.

`ON=C(c1ccccc1)c1ccccc1` gave a melting point of 140 to 144 °C. Turning to `Cc1cnc(N)s1`, the melting point turned out to be 97 °C.

As for `O=C(O)Cc1ccc(Cl)nc1`, the melting point worked out at 174 °C.

In the case of `O=C(O)c1cc2cc(O)ccc2[nH]1`, the melting point is 249 °C. `CC12CCC(=O)C=C1CCC1C2C(=O)CC2(C)C(C(=O)CO)CCC12` (stereo not given): the melting point turned out to be 184 °C.

With `O=C(O)c1ccc(Cl)cc1Cl`, the melting point was 164 °C.

`OC1(c2ccc(Br)cc2)CCNCC1` displayed a melting point of 163 to 168 °C. The result for `ClC=CCl` reads -80 °C. In turn, `Brc1ccc(Oc2ccccc2Br)cc1` showed a melting point of under 20 °C. For `O=C(CCl)c1ccc(O)c(O)c1`, the melting point is 174 °C. On to `O=C(c1c(F)c(F)c(F)c(F)c1F)c1c(F)c(F)c(F)c(F)c1F`, for which the melting point stood at 93 °C.

In turn, `CCCCCCCCC(=O)NCc1ccc(O)c(OC)c1` returned a melting point of 57 °C.

For the compound `O=C(O)CCC12CC3CC(CC(C3)C1)C2`, the melting point was 147 to 148 °C. `O=C(O)c1c(Cl)c(Cl)c(Cl)c(Cl)c1Cl` came in with a melting point of 209 °C. As to `S=c1oc(-c2cc3ccccc3o2)nn1CCl`, the melting point was determined as 300 °C. `O=[N+]([O-])c1ccc(Oc2ccccc2)c([N+](=O)[O-])c1` came in with a melting point of 71 °C. In turn, `Cc1sc2ccccc2c1CC1=NCCN1` yielded a melting point of 156 °C. In the case of `N#CC1=C(N)n2nc(C(F)(F)F)nc2NC1c1ccc(Cl)cc1Cl` (stereo not given), the melting point lay within 305 to 307 °C. The compound `Cc1c(O)ccc(O)c1C` registered a melting point of 224 °C. In the case of `Sc1nc(-c2ccccc2)cs1`, the melting point amounted to 174 °C.

`C=C/C=C/C=C` returned a melting point of -12 °C. Compound `CCc1ccc(Cc2ccccc2)cc1` gave a melting point of -24 °C.

On to `NC1CCCCCCCCCCC1`, for which the melting point was 28 to 30 °C. In turn, `CCOC(=O)c1cccc(Oc2cncc(C)n2)c1` had a melting point of 50.5 to 51.5 °C. Compound `CC=CC=C(C)C` returned a melting point of -74.2 °C.

The compound `CC(C)C[C@H](N)[C@@H](O)CC(=O)O` had a melting point of 209 °C.

Compound `O=C(Nc1ccc(F)cc1)c1c(O)c(F)c(F)c(F)c1F` returned a melting point of 130 °C. The value for `FC(F)(F)c1nnc(S)n1-n1cccc1` was 165 °C. `Cc1ccc(S(=O)(=O)Nc2ccc(Cl)cc2)cc1`: the melting point amounted to 120 °C. The value for `NC(=O)c1ccc(Cl)c(Cl)c1` was 141 °C; that for `COc1ccc(F)c(F)c1C#N` was 81 °C.

Compound `COc1ccc(/C=N/c2nc(C(F)(F)F)n[nH]2)cc1` returned a melting point of 171 °C. The result for `CNc1c(C=O)c(=O)oc2ccccc12` reads 215 to 216 °C; that for `O=C1OS(=O)(=O)c2c(Br)c(Br)c(Br)c(Br)c21`, 215 to 220 °C. `CC(C)(C)[Si](C)(C)ON` returned a melting point of 64 °C. Turning to `CC(=O)SCC(C)C(=O)O` (stereo not given), the melting point worked out at 5 °C. `CC(=O)Nc1ccccc1Br` registered a melting point of 99 °C. `NC(=S)c1ccc(Oc2ccc(C(F)(F)F)cn2)cc1` came in with a melting point of 175 to 178 °C. The value for `Cc1ccc(F)c(C#N)c1` was 51 °C.

In turn, `CC(/C=C(\C)c1ccc(-c2ccccc2)cc1)=NNS(=O)(=O)c1ccc([N+](=O)[O-])c([N+](=O)[O-])c1` gave a melting point of 200 to 201 °C. The value for `Cc1sc2ncnc(Cl)c2c1C` was 112 to 113 °C; that for `COc1ccc(C(C)=O)cc1O` was 89.5 °C. Compound `COc1ccc(CC#N)cc1F` registered a melting point of 48 °C.

In turn, `COc1ccc2cc([N+](=O)[O-])ccc2c1` showed a melting point of 134 °C. For the compound `Oc1ccc2ccccc2c1Br`, the melting point worked out at 84 °C. The compound `O=Cc1csc(-c2cccc(Cl)c2)n1` displayed a melting point of 103 to 104 °C. `Cc1nc2cc(C)c(C)cc2s1`: the melting point turned out to be 84 °C. The result for `c1ccc2cc(P(c3ccc4ccccc4c3)c3ccc4ccccc4c3)ccc2c1` reads 228 °C; that for `O=C(O)CCC(F)(F)C(F)(F)C(F)(F)F`, 38 to 39 °C. The compound `O=C(C=Cc1ccccc1)c1ccc(O)cc1` showed a melting point of 174 to 178 °C. The result for `CCCCCCCCSCCO` reads 0 °C; that for `O=Cc1ccc(Br)cc1`, 67 °C.

In turn, `COc1cc2c(c(O)c1OC)C(C)NCC2` (stereo not given) registered a melting point of 160 °C. The compound `O=C(O)CSCC(=O)NC1CCSC1=O` (stereo not given) registered a melting point of 156 °C. `CC1C(C(=O)NN)C1C(=O)NN` (stereo not given) gave a melting point of 242 to 245 °C. For the compound `COC(=O)Nc1nc2ccc(C(=O)c3ccccc3)cc2[nH]1`, the melting point worked out at 288 °C.

`CC(C)(CCl)C(=O)O` displayed a melting point of 41.5 °C. Compound `c1ccc(C/C(=N\Nc2ccccc2)c2ccc3ccccc3c2)cc1` had a melting point of 165 to 167 °C. Regarding `OC[C@H]1O[C@@H](n2cnc3c(Cl)ncnc32)[C@H](O)[C@@H]1O`, the melting point was 161 to 163 °C. For the compound `CC(=O)c1ccc(NC(=O)C(C(F)(F)F)(C(F)(F)F)C(F)(F)F)cc1`, the melting point lay in the range of 223 to 225 °C.

The values above are taken from a melting point compilation (Tetko et al.).
